Results taken from article PMC7320011, “Rationally designed ruthenium complexes for 1- and 2-photon photodynamic therapy” (Nature Communications, 2020).
Where two headings read alike, the source gives them in different places.

Columns and labels:
[1] = tested on: noncancerous retinal pigment epithelium (RPE-1) cells; assay: (Photo-)cytotoxicity on 2D cell monolayers, RPE-1; conditions: for PI (480 nm): RPE-1, dark vs 480 nm; for PI (540 nm): RPE-1, dark vs 540 nm; for IC50: 1-3 as chloride salts
Experimental: (§1) A total of 4 × 10^3 cells were seeded on 96-well plates and allowed to adhere overnight. The cells were treated with increasing concentrations of the sample diluted in cell media achieving a total volume of 200 μL. The cells were incubated with the sample for 8 h and, after this time, the medium refreshed. To study the phototoxic effect of the sample, the cells were exposed to 480 nm (spectral half-width: 20 nm, 10 min, 5.2 mW cm^−2, 3.1 J cm^−2) or 540 nm (spectral half-width: 30 nm, 40 min, 4.0 mW cm^−2, 9.5 J cm^−2) light using an Atlas Photonics LUMOS BIO irradiator. To study the dark cytotoxicity of the sample, the cells were not irradiated and the medium exchanged. The cells were grown for an additional 40 h at 37 °C. After this time, the medium was replaced with fresh medium containing resazurin with a final concentration of 0.2 mg mL^−1. The cells were incubated for 4 h and the amount of the fluorescent product resorufin determined (λex = 540 nm, λem = 590 nm) with a SpectraMax M2 Microplate Reader (Molecular Devices). The obtained data was analyzed with the GraphPad Prism software.

[2] = tested on: human glioblastoma astrocytoma (U373) cells;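 note: Resazurin-to-resorufin fluorescence viability readout, 8 h compound exposure then medium change, light dose 3.1 J cm^−2 at 480 nm or 9.5 J cm^−2 at 540 nm, analysed 40 h later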
Experimental: as §1

[3] = Singlet oxygen quantum yield, indirect evaluation (1O2 scavenger absorbance); assay type: physicochemical
Experimental: Indirect evaluation: measurement in acetonitrile: the sample was prepared in an air-saturated acetonitrile solution with an absorption of 0.2 at the irradiation wavelength, N,N-dimethyl-4-nitrosoaniline aniline (RNO, 24 µM) and imidazole (12 mM). Measurement in PBS buffer: the sample was prepared in an air-saturated PBS solution containing the complex with an absorption of 0.2 at the irradiation wavelength, N,N-dimethyl-4-nitrosoaniline aniline (RNO, 20 µM) and histidine (10 mM). The samples were irradiated for various time points with an Atlas Photonics LUMOS BIO irradiator. The absorption of the samples was constantly monitored with a SpectraMax M2 Microplate Reader (Molecular Devices). The difference in absorption (A0 − A) at 420 nm for the measurement in acetonitrile or at 440 nm for the measurement in PBS was determined. The difference in absorption was then plotted against the irradiation times and the slope of the linear regression calculated. The absorption of the sample was corrected with an absorption correction factor. The singlet oxygen quantum yields were calculated using the same formulas as used for the direct evaluation.

[4] = tested on: human glioblastoma astrocytoma (U373) cells; assay: (Photo-)cytotoxicity on 2D cell monolayers, U373; conditions: for PI (480 nm): U373, dark vs 480 nm; for PI (540 nm): U373, dark vs 540 nm; for IC50: 1-3 as chloride salts;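 for all read-outs here: Resazurin-to-resorufin fluorescence viability readout, 8 h compound exposure then medium change, light dose 3.1 J cm^−2 at 480 nm or 9.5 J cm^−2 at 540 nm, analysed 40 h later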
Experimental: as §1

Excited state lifetime = assay type: physicochemical; conditions: for τ air, excited state lifetime: air saturated acetonitrile; for τ degassed, excited state lifetime: degassed acetonitrile
Experimental: The sample was prepared in an air saturated as well as a degassed acetonitrile solution with an absorption of 0.2 at 355 nm. The sample was irradiated at 355 nm with a NT342B Nd-YAG pumped optical parametric oscillator (Ekspla). The emission was focused at right angle to the excitation pathway and directed to a Princeton Instruments Acton SP-2300i monochromator. The signal was detected with a R928 photomultiplier tube (Hamamatsu).

[5] = Two-photon absorption cross section; assay type: physicochemical; conditions: dichloromethane
Experimental: The two-photon absorption cross section spectra of the sample was determined upon direction comparison to Rhodamine B. The sample was irradiated with an OpoletteTM 355II (pulse width ≤ 100 fs, 80 MHz repetition rate, Spectra Physics Inc.) laser. The experimental excitation and detection conditions were conducted with negligible reabsorption processes, which could affect two-photon absorption measurements. The quadratic dependence of the two-photon induced luminescence intensity on the excitation power was verified at an excitation wavelength of 800 nm. The two-photon absorption cross section was calculated using the following equation:1 σ2,sample=σ2,reference×Φreference×creference×Isample×nsample/Φsample×csample×Ireference×nreference,
σ2 = two-photon cross section, Φ = luminescence quantum yield, c = concentration, I = integrated luminescence intensity, n = refractive index

[6] = tested on: human cervical carcinoma (HeLa) cells; assay: (Photo-)cytotoxicity on 2D cell monolayers, HeLa; assay type: cell-based; conditions: for IC50: 1-3 as chloride salts; for PI (480 nm): dark vs 480 nm; for PI (540 nm): dark vs 540 nm
Experimental: as §1

[7] = Singlet oxygen quantum yield, direct evaluation (1O2 phosphorescence); assay type: physicochemical
Experimental: Direct evaluation: the sample was prepared in an air-saturated acetonitrile or deuterated water solution with an absorption of 0.2 at 450 nm. The sample was irradiated at 450 nm with a mounted M450LP1 LED (Thorlabs), whose light was focused with aspheric condenser lenses. Using a T-Cube LED Driver (Thorlabs), the intensity of the irradiation was varied and monitored with an optical power and energy meter. The emission was focused at right angle to the excitation pathway and directed to a Princeton Instruments Acton SP-2300i monochromator. To cut off light at wavelengths shorter than 850 nm, a longpass glass filter was placed in front of the monochromator entrance slit. The signal was detected with an EO-817L IR-sensitive liquid-nitrogen cooled germanium diode detector (North Coast Scientific Corp.). The luminescence signal, centered at 1270 nm, was measured from 1100 to 1400 nm. The obtained data were analyzed upon plotting the integrated luminescence peaks against the percentage of the irradiation intensity. The slope of the linear regression was calculated and compared with the reference Rose Bengal (Φ = 76%)[59]. The absorption of the sample was corrected with an absorption correction factor. The singlet oxygen quantum yields were calculated using the following formula:4 Φsample=Φreference×Ssample/Sreference×Ireference/Isample, 5 I=I0×1−10^-A.
Φ = singlet oxygen quantum yield, S = slope of the linear regression of the plot of the areas of the singlet oxygen luminescence peaks against the irradiation intensity, I = absorption correction factor, I0 = light intensity of the irradiation source, and A = absorption of the sample at irradiation wavelength.

[8] = tested on: noncancerous retinal pigment epithelium (RPE-1) cells
Experimental: as §1

[9] = Emission and luminescence quantum yield; assay type: physicochemical; conditions: acetonitrile
Experimental: The absorption spectra of the sample was measured with a SpectraMax M2 Spectrometer (Molecular Devices). For the measurements of the emission, the sample was irradiated at 355 nm with a NT342B Nd-YAG pumped optical parametric oscillator (Ekspla). The emission was focused at right angle to the excitation pathway and directed to a Princeton Instruments Acton SP-2300i monochromator. The signal was detected with a XPI-Max 4 CCD camera (Princeton Instruments).
The sample was prepared in an acetonitrile solution with an absorption of 0.1 at 355 nm. The sample was irradiated at 355 nm with a NT342B Nd-YAG pumped optical parametric oscillator (Ekspla). The emission was focused at right angle to the excitation pathway and directed to a Princeton Instruments Acton SP-2300i monochromator. The signal was detected with a XPI-Max 4 CCD camera (Princeton Instruments). The luminescence quantum yields were determined by comparison with the reference [Ru(2,2′-bipyridine)3]Cl2 in acetonitrile (Φem = 5.9%)[58] applying the following formula:2 Φem,sample=Φem,reference×Freference/Fsample×Isample/Ireference×nsample/nreference^2, 3 F=1−10^-A. Φem = luminescence quantum yield, F = fraction of light absorbed, I = integrated emission intensities, n = refractive index, A = absorbance of the sample at irradiation wavelength.

[10] = read-out: IC50 540 nm (40 min, 9.5 J cm-2), RPE-1, 540 nm
[11] = read-out: IC50 dark, RPE-1, dark
[12] = read-out: IC50 480 nm (10 min, 3.1 J cm-2), U373, 480 nm
[13] = read-out: IC50 dark, U373, dark
[14] = 480 nm, read-out: IC50 480 nm (10 min, 3.1 J cm-2)
[15] = 540 nm, read-out: IC50 540 nm (40 min, 9.5 J cm-2)

SMILES	PI (480 nm) [1]	PI (540 nm) [1]	IC50 [1, 10] [µM]	IC50 [1, 11] [µM]	IC50 [2] [µM]	Singlet oxygen quantum yield, Indirect 450 nm CH3CN [3] [%]	Singlet oxygen quantum yield, Indirect 450 nm PBS [3] [%]	Singlet oxygen quantum yield, Indirect 540 nm CH3CN [3] [%]	Singlet oxygen quantum yield, Indirect 540 nm PBS [3] [%]	PI (480 nm) [4]	PI (540 nm) [4]	IC50 [4, 12] [µM]	IC50 [4, 13] [µM]	τ air, excited state lifetime (Excited state lifetime) [ns]	τ degassed, excited state lifetime (Excited state lifetime) [ns]	σ2, 2P absorption cross section [5] [GM]	IC50 [6, 14] [µM]	IC50 [6, 15] [µM]	PI (540 nm) [6]	IC50 ([6]; dark, read-out: IC50 dark) [µM]	also measured
CN(C)c1ccc(/C=C/c2ccnc(-c3cc(/C=C/c4ccc(N(C)C)cc4)ccn3)c2)cc1.CN(C)c1ccc(/C=C/c2ccnc(-c3cc(/C=C/c4ccc(N(C)C)cc4)ccn3)c2)cc1.F[P-](F)(F)(F)(F)F.F[P-](F)(F)(F)(F)F.[Ru+2].c1ccc(-c2ccccn2)nc1 [compound 4, [Ru(2,2′-bipyridine)((E,E′)-4,4′-Bis[p-(N,N-dimethylamino)styryl]-2,2′-bipyridine)2][PF6]2]	> 9.2	> 6.8	14.7	> 100	19	40	2	37	3	> 7.0	> 5.3	14.3	> 100	69	417	838	8.5	10.6	> 9.4	> 100	PI (480 nm) [6]: > 11.8; Singlet oxygen quantum yield, Direct 450 nm CH3CN [7]: 34%; IC50 [8]: 10.9 µM; Φem, luminescence quantum yield [9]: 0.4%; λem, emission maximum [9]: 703 nm
COc1ccc(/C=C/c2ccnc(-c3cc(/C=C/c4ccc(OC)cc4)ccn3)c2)cc1.COc1ccc(/C=C/c2ccnc(-c3cc(/C=C/c4ccc(OC)cc4)ccn3)c2)cc1.F[P-](F)(F)(F)(F)F.F[P-](F)(F)(F)(F)F.[Ru+2].c1ccc(-c2ccccn2)nc1 [compound 5, [Ru(2,2′-bipyridine)((E,E′)-4,4′-Bis[p-methoxystyryl]-2,2′-bipyridine)2][PF6]2]	> 9.8	> 7.9	12.7	> 100	17.8	51	8	46	6	> 6.5	> 5.6	15.3	> 100	36	231	313	6.4	7.9	> 12.7	> 100	Singlet oxygen quantum yield, Direct 450 nm CH3CN [7]: 54%; IC50 [8]: 10.2 µM; Φem, luminescence quantum yield [9]: 1.4%; λem, emission maximum [9]: 674 nm
CN(C)c1ccc(/C=C/c2ccnc(-c3cc(/C=C/c4ccc(N(C)C)cc4)ccn3)c2)cc1.F[P-](F)(F)(F)(F)F.F[P-](F)(F)(F)(F)F.[Ru+2].c1ccc(-c2ccccn2)nc1.c1ccc(-c2ccccn2)nc1 [compound 6, [Ru(2,2′-bipyridine)2((E,E′)-4,4′-Bis[p-(N,N-dimethylamino)styryl]-2,2′-bipyridine)][PF6]2]	> 13.7	> 12.3	8.1	> 100	10.7	53	2	38	2	> 12.0	> 9.3	8.3	> 100	54	405	349	5.3	5.8	> 17.2	> 100	PI (480 nm) [6]: > 18.9; Singlet oxygen quantum yield, Direct 450 nm CH3CN [7]: 46%; IC50 [8]: 7.3 µM; Φem, luminescence quantum yield [9]: 0.5%; λem, emission maximum [9]: 697 nm
